Data reported in US20240415845A1, “Compositions of Iboga Alkaloids and Methods of Treatment” (priority 2022, published 2024).
Entries after “also recorded” stand apart in the source; their conditions may differ.

What was measured:
Format in all cases: in vivo, human
[1] = system: special operations veterans with combat and/or blast exposure; assay: Moral Injury Symptom Scale (MISS)
Text: A Moral Injury Symptom Scale (MISS) was also used to assess the subjects before and one month after treatment. Moral injury is when one acts in a manner or witnesses behaviors that go against an individual's values and moral beliefs. This may include betrayal by leadership or peers with adverse outcomes. Symptoms include guilt, remorse, shame, disgust, anger, inability to forgive oneself, engaging in self-sabotaging behaviors, such as feeling undeserving, affecting work and relationships, and questioning spirituality. The MISS is a multidimensional measure to assess the severity of moral injury symptoms. Possible score range is 45-450, with higher scores indicating more severe moral injury (Koenig et al., J. Relig Health, 57:249-265 (2018)).

[2] = system: special operations veterans with combat and/or blast exposure; assay: Montgomery-Asberg Depression Rating Scale (MADRS), incl. suicidal ideation item Q10; details: for Suicidal Ideation (MADRS Q10), % Reporting: only participants with non-zero suicidal ideation at baseline (N 14), baseline 100%
Text: The pre-specified primary outcome was change in the World Health Organization Disability Assessment Schedule 2.0 (WHODAS) (Gold L. H. et al., J. Am. Acad. Psychiatry Law 42, 9 (2014)) from baseline to post-treatment, with change from baseline to the one-month follow-up a secondary outcome. Additional pre-specified secondary outcomes included post-treatment changes on the Clinician Administered PTSD Scale (CAPS-5; Weathers, F. W. et al., Psychol. Assess., 30, 383-395 (2018)), Montgomery-Åsberg Depression Rating Scale (MADRS; Montgomery, S. A., Br. J. Psychiatry J. Ment. Sci., 134, 382-389 (1979)) and the Hamilton-Anxiety Rating Scale (HAM-A; Bruss, G. S., et al., Psychiatry Res., 53, 191-202 (1994)). […] An additional dose of magnesium was administered approximately 12 hours later. To assess the significance of post-treatment changes, linear mixed effects (LME) models were used for each outcome measure. False Discovery Rate (FDR; Benjamini, Y. et al., J. R. Stat. Soc. Ser. B Methodol., 57, 289-300 (1995)) was applied to correct for multiple comparisons.
To further assess changes in comorbid psychiatric symptoms identified by the models, mean percent reduction, response rate, and remission rate according to the CAPS-5, MADRS and HAM-A (Table 1) were calculated. Response on the CAPS-5, MADRS, and HAM-A was defined as a reduction of at least 10 points (Mitchell, J. M. et al., Nat. Med. 27, 1025-1033(2021)), 50% (Leucht, S. et al., J. Affect. Disord. 210, 287-293 (2017)), and 50% (McIntyre, A. et al., Depress. Anxiety 24, 487-494 (2007)), respectively; remission as loss of diagnosis and a total score below 12 (Mitchell, J. M. et al. supra), <8 (Leucht, S. et al. supra), and <8(McIntyre, A. et al., supra), respectively.
(§1) With subjects in the fasting state, an intravenous infusion of 1 gram of magnesium sulfate was administered 1-2 hours prior to treatment. […] Medical staff (MD, RN, or EMT) were onsite at a ratio of at least 1 staff per 2 patients throughout treatment for monitoring and management, but no specific coaching or psychological support was provided during treatment.
Clinician administered scales included CAPS-5 (Clinician-administered PTSD Scale for DSM-5), which is a gold standard assessment of PTSD symptom severity; MADRS (Montgomery-Asberg Depression Rating Scale), a measure for depressive symptom severity: and Hamilton-Anxiety Rating Scale (HAM-A) (Shear, M. K. et al., Depress. Anxiety 13, 166-178 (2001)) a measure for anxiety symptom severity: SCID-5 (Structured Clinical Interview for DSM-5) Overview for a historical and environmental context of symptom presentation: MINI DSM-5 (Mini International Neuropsychiatric Interview from DSM-5) for a structured psychodiagnostics assessment: BAT-L (Boston Assessment of TBI-Lifetime) for a lifetime history of TBI and blast exposure: and Ohio State University TBI Identification Method (Short Form) for a lifetime history of TBI. MADRS testing provides an indication of depressive symptoms, CAPS-5 provides an indication of PTSD and SIGH-A provides an indication of anxiety. Collectively these overlap to provide indication of mood, concentration, sleep and tension.
The MADRS is a clinician-administered 10-item scale assessing the severity of depression symptoms. Items are rated on a scale of 0 (no abnormality) to 6 (severe) (Montgomery, S. A. et al., Br. J. Psychiatry J. Ment. Sci. 134, 382-389 (1979)). A total score of 0-6 indicates no depression, 7-19 mild depression, 20-34 moderate depression, 35-59 severe depression, and 60+ very severe depressive symptoms (Müller, M. J., J. Affect. Disord. 77, 255-260 (2003)).

[3] = system: special operations veterans with combat and/or blast exposure; assay: Safety monitoring during and after treatment (adverse events, QTc by ECG)
Experimental: as §1

[4] = 1-mo. post, only participants meeting relevant MINI diagnostic criteria
[5] = 1-mo. post, only participants with mild TBI
[6] = 1-wk. post, only participants meeting relevant MINI diagnostic criteria
[7] = 1-wk. post, only participants with mild TBI

CCC1CC2CC3c4[nH]c5ccc(OC)cc5c4CCN(C2)C13 (stereo not drawn) [ibogaine, Ibogaine]
subjects showing a reduction in moral injury score ([1]; FIG. 6B): 88%
MISS effect size ([1]; one month after treatment vs baseline): 1.14
average moral injury symptoms score (MISS) ([1]; one month after treatment, baseline about 220, score range 45-450): about 140
MADRS % Reduction vs Baseline [2, 4]: 81% ± 21%
MADRS Remission Rate [2, 4]: 67%
MADRS Response Rate [2, 4]: 93%
MADRS score ([2]; 1-mo. post, only participants meeting relevant MINI diagnostic criteria at baseline (N 15), baseline 31.3 ± 6.5): 6.4
MADRS % Reduction vs Baseline [2, 5]: 87% ± 17%
MADRS Remission Rate [2, 5]: 85%
MADRS Response Rate [2, 5]: 96%
MADRS score ([2]; 1-mo. post, only participants with mild TBI (N 28), baseline 25.2 ± 8.7): 3.6
Suicidal Ideation (MADRS Q10), % Reporting ([2]; 1-mo. post): 14%
MADRS score ([2]; 1-wk post, only participants meeting relevant MINI diagnostic criteria at baseline (N 15), baseline 31.3 ± 6.5): 3.6
Suicidal Ideation (MADRS Q10), % Reporting ([2]; 1-wk post): 0%
MADRS % Reduction vs Baseline [2, 6]: 89% ± 11%
MADRS Remission Rate [2, 6]: 73%
MADRS Response Rate [2, 6]: 100%
MADRS % Reduction vs Baseline [2, 7]: 87% ± 24%
MADRS Remission Rate [2, 7]: 85%
MADRS Response Rate [2, 7]: 100%
MADRS score ([2]; 1-wk. post, only participants with mild TBI (N 28), baseline 25.2 ± 8.7): 2.7
subjects meeting criteria for remission with a MADRS score of less than 7 ([2]; FIG. 4B): 82%
subjects meeting criteria for response, reduction of more than 50% in MADRS symptom severity ([2]; FIG. 4B): 96%
MADRS, effect size D ([2]; baseline vs 1-mo. post, only participants meeting relevant MINI diagnostic criteria (N 15)): 3.15
MADRS, effect size D ([2]; baseline vs 1-mo. post, only participants with mild TBI (N 28)): 2.70
MADRS, effect size D ([2]; baseline vs 1-wk post, only participants with mild TBI (N 28)): 2.55
MADRS, effect size D ([2]; baseline vs 1-wk. post, only participants meeting relevant MINI diagnostic criteria (N 15)): 4.11
MADRS, effect size D ([2]; baseline vs one-month post, all participants): 2.80
MADRS, effect size D ([2]; baseline vs one-week post, all participants): 2.65
MADRS Remission Rate ([2]; one-month post, 29 participants, remission = score <8): 83%
MADRS Response Rate ([2]; one-month post, 29 participants, response = reduction of at least 50%): 97%
MADRS score ([2]; one-month post, all participants, baseline 25.6 ± 8.7, mean ± SD): 3.8
MADRS % Reduction vs Baseline ([2]; one-month post, all participants, mean ± SD): 87% ± 17%
MADRS Remission Rate ([2]; one-week post, 29 participants, remission = score <8): 83%
MADRS Response Rate ([2]; one-week post, 29 participants, response = reduction of at least 50%): 100%
MADRS % Reduction vs Baseline ([2]; one-week post, all participants, mean ± SD): 87% ± 23%
participants with transient cerebellar signs such as mild ataxia and intention tremor ([3]; 30 participants): All participants
unexpected or serious treatment-emergent side effects / adverse events ([3]; 30 participants, oral ibogaine with IV magnesium sulfate): no unexpected or serious treatment-emergent side effects; also recorded: no unexpected or serious adverse events
prolongation of QTc ([3]; continuous 5-lead ECG for 12-16 hours following administration): no instances of a concerning prolongation of QTc
time to resolution of transient cerebellar signs ([3]; human, in vivo, oral): ≤ 24 h
participants treated for insomnia ([3]; while experiencing the oneirogenic effects, 1 participant): 3%
participants treated for hypertension ([3]; while experiencing the oneirogenic effects, 2 participants): 7%
participants treated for anxiety ([3]; while experiencing the oneirogenic effects, 3 participants): 10%
participants treated for nausea ([3]; while experiencing the oneirogenic effects, 7 participants): 23%
participants treated for headache ([3]; while experiencing the oneirogenic effects, 12 participants): 40%
